# Biological target: T1, NrpR (Methanococcus maripaludis, UniProt Q6LZL7)
# T1 sequence (Q6LZL7 1-536): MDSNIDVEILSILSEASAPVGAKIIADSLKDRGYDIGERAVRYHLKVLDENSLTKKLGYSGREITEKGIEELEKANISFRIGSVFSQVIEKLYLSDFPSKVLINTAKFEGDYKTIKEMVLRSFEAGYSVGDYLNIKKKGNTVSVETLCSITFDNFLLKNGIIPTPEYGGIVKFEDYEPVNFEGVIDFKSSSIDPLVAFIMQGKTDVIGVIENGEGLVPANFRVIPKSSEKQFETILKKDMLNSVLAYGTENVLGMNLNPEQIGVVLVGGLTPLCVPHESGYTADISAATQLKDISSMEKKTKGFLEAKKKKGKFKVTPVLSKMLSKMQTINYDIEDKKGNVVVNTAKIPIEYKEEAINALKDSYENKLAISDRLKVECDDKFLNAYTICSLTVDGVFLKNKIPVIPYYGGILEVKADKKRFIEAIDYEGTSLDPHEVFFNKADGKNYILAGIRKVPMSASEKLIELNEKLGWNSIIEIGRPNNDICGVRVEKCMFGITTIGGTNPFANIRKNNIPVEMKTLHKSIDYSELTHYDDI
# Assay: EMSA, inhibition of NrpR binding to […]-labelled glnK1 operator DNA
# Conditions: inducer ligand; wild type glnK1 operator region O1+O2; 0.1 and 0.4 mM 2OG
smiles,measurement,value
O=C(O)CCC(=O)C(=O)O [2-oxoglutarate],"EMSA, inhibition of NrpR binding to 32P-labelled glnK1 operator DNA",2OG indicates the nitrogen state of the cell and is the inducer ligand

# From paper PMC3104677 (Molecular microbiology, 2009)
